The text below walks through data of US11071731B2, “Allosteric modulators of the mu opioid receptor” (Chiromics, LLC, priority 2017, dated 2021).

A value given as a limit tells only on which side of the number the result lay.

In assay [1] the target is T1, mu opioid receptor (MOR) (Homo sapiens, UniProt P35372). Briefly: Hit Hunter cAMP signaling assay (adenylyl cyclase inhibition), PAM mode with EC20 endomorphin-1. The note with it: for allosteric activity for cAMP signaling: EC20 endomorphin-1 concentration of 0.45 nM. The class given is cell-based.
The target in assay [2] is T1, mu opioid receptor (MOR). Briefly: PathHunter β-arrestin recruitment assay, PAM mode with EC20 endomorphin-1. Type of assay: cell-based. The note with it: for allosteric activity for β-arrestin recruitment: EC20 endomorphin-1 concentration of 4.5 nM; for EC50: read-out: β-arr. EC50. An outline of the steps:
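Enzyme fragment complementation read-out: β-gal ED fragment fused to receptor, EA fused to β-arrestin, recruitment restoring β-gal activity detected by chemiluminescence. EC50 and percent maximal response derived for each compound.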

[3] abbreviates: cAMP EC50, adenylyl cyclase inhibition.
The mark [4] stands for this setting: maximal response for adenylyl cyclase inhibition.
[5] abbreviates: maximal response for β-arrestin recruitment.
The mark [6] stands for this setting: adenylyl cyclase inhibition, read-out: cAMP EC50.

T1 sequence (P35372 whole entry): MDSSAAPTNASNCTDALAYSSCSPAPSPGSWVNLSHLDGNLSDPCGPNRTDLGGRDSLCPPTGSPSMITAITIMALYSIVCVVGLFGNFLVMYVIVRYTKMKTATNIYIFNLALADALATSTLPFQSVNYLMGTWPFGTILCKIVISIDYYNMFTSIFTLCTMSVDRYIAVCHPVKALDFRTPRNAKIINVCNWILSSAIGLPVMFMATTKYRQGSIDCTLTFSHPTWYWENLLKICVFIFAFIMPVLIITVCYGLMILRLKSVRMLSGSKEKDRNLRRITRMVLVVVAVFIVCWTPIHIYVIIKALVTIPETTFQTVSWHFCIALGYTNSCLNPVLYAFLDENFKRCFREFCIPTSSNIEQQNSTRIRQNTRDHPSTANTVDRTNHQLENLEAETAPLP

What is called EC50 is the concentration needed to bring the measured effect to its halfway point. With `COc1ccc(C2CCCCN2S(=O)(=O)c2ccccc2)cc1Br` (stereo not shown) [compound 14], the results for the “allosteric activity for cAMP signaling” value at mu opioid receptor (MOR) [1] and at mu opioid receptor (MOR) [1] (listed as Compound No. 14) were “silent allosteric activity” and “dual silent allosteric modulation”, respectively. Also, the EC50 at mu opioid receptor (MOR) [1] (cAMP EC50 (nM), adenylyl cyclase inhibition, Table 3) was 9610 nM; at mu opioid receptor (MOR) [1] (setting [3]), > 2100 nM; at mu opioid receptor (MOR) [2] (β-arrestin recruitment, Table 3) it was 13200 nM; on mu opioid receptor (MOR) [2] (β-arrestin recruitment), > 2100 nM. The “cAMP Max. Resp.” value on mu opioid receptor (MOR) [1] (setting [4]) is given as “E (E represents a maximal response of 40-60%)”. For the same compound, the “cAMP Max Resp.” value at mu opioid receptor (MOR) [1] (maximal response for adenylyl cyclase inhibition, Table 3) amounted to 43. Also, the “allosteric activity for β-arrestin recruitment” value at mu opioid receptor (MOR) [2] is “silent allosteric activity”; on mu opioid receptor (MOR) [2] (listed as Compound No. 14), “dual silent allosteric modulation”. The “β-arr Max. Resp.” value at mu opioid receptor (MOR) [2] (setting [5]) is “F (F represents a maximal response of > 60%)”. Besides, on mu opioid receptor (MOR) [2] (maximal response for β-arrestin recruitment, Table 3), the “β-arr. Max Resp.” value is 111.

For the compound `Fc1cnc(Cl)nc1N1CCCCC1c1cncc(Cl)n1` (stereo not shown) [compound 277], the EC50 at mu opioid receptor (MOR) [1] (setting [3]) and on mu opioid receptor (MOR) [2] (β-arrestin recruitment) was > 2100 nM throughout. In addition, on mu opioid receptor (MOR) [1] (setting [4]), the “cAMP Max. Resp.” value is given as “D (D represents a maximal response of < 40%)”. The “β-arr Max. Resp.” value on mu opioid receptor (MOR) [2] (setting [5]) is listed as “E (E represents a maximal response of 40-60%)”.

For the compound `Cc1ncccc1C1CCCCN1c1nc(Cl)ncc1F` (stereo not shown) [compound 407], the concentration for a half-maximal effect (EC50) on mu opioid receptor (MOR) [1] (setting [3]) and on mu opioid receptor (MOR) [2] (β-arrestin recruitment) was < 700 nM throughout. Moreover, at mu opioid receptor (MOR) [1] (setting [4]), the “cAMP Max. Resp.” value is recorded as “D (D represents a maximal response of < 40%)”. At mu opioid receptor (MOR) [2] (setting [5]), the “β-arr Max. Resp.” value is “D (D represents a maximal response of < 40%)”.

As to `COc1cccc(CN2CCCCC2c2cccc(C(F)(F)F)n2)c1` (stereo not shown) [compound 156], the concentration giving a half-maximal response (EC50) on mu opioid receptor (MOR) [1] (setting [3]) and at mu opioid receptor (MOR) [2] (β-arrestin recruitment) was > 2100 nM each time. The “cAMP Max. Resp.” value at mu opioid receptor (MOR) [1] (setting [4]) is “E (E represents a maximal response of 40-60%)”. At mu opioid receptor (MOR) [2] (setting [5]), the “β-arr Max. Resp.” value is “F (F represents a maximal response of > 60%)”.

As to `COc1ccc(C2CCCCN2c2nc(Cl)ncc2F)cc1C(F)(F)F` (stereo not shown) [compound 289], the figures for the EC50 on mu opioid receptor (MOR) [1] (setting [3]) and on mu opioid receptor (MOR) [2] (β-arrestin recruitment) were > 2100 nM and 700 to 2100 nM, respectively. The “cAMP Max. Resp.” value on mu opioid receptor (MOR) [1] (setting [4]) is recorded as “D (D represents a maximal response of < 40%)”. The “β-arr Max. Resp.” value on mu opioid receptor (MOR) [2] (setting [5]) is recorded as “F (F represents a maximal response of > 60%)”.

For the compound `Fc1cnc(Cl)nc1N1CC(F)(F)CC1c1cccc(C(F)(F)F)n1` (stereo not shown) [compound 482], the concentration giving a half-maximal response (EC50) on mu opioid receptor (MOR) [1] (setting [6]) and at mu opioid receptor (MOR) [2] (β-arrestin recruitment) was > 2100 nM in each case. For the same compound, on mu opioid receptor (MOR) [1] (maximal response, adenylyl cyclase inhibition), the “cAMP Max. Resp.” value is listed as “D (D represents a maximal response of < 40%)”. The “β-arr Max. Resp.” value at mu opioid receptor (MOR) [2] (maximal response, β-arrestin recruitment) was “D (D represents a maximal response of < 40%)”.

Regarding `FC(F)(F)c1cccc(C2CCCCN2Cc2cccc(Cl)c2)c1` (stereo not shown) [compound 154], the EC50 on mu opioid receptor (MOR) [1] (setting [3]) and on mu opioid receptor (MOR) [2] (β-arrestin recruitment) was < 700 nM throughout. In addition, the “cAMP Max. Resp.” value at mu opioid receptor (MOR) [1] (setting [4]) was “E (E represents a maximal response of 40-60%)”. The “β-arr Max. Resp.” value on mu opioid receptor (MOR) [2] (setting [5]) was “F (F represents a maximal response of > 60%)”.

As to `Cc1ccc(C2CCCCN2c2nc(Cl)ncc2F)cn1` (stereo not shown) [compound 411], the EC50 at mu opioid receptor (MOR) [1] (setting [3]) and on mu opioid receptor (MOR) [2] (β-arrestin recruitment) was < 700 nM throughout. In addition, the “cAMP Max. Resp.” value on mu opioid receptor (MOR) [1] (setting [4]) is “D (D represents a maximal response of < 40%)”. In addition, the “β-arr Max. Resp.” value at mu opioid receptor (MOR) [2] (setting [5]) was “D (D represents a maximal response of < 40%)”.

As to `FC(F)(F)c1cccc(C2CCCCN2c2cc(Cl)ncn2)c1` (stereo not shown) [compound 360], the EC50 on mu opioid receptor (MOR) [1] (setting [3]) and on mu opioid receptor (MOR) [2] (β-arrestin recruitment) was < 700 nM throughout. Also, on mu opioid receptor (MOR) [1] (setting [4]), the “cAMP Max. Resp.” value is recorded as “D (D represents a maximal response of < 40%)”. Also, the “β-arr Max. Resp.” value at mu opioid receptor (MOR) [2] (setting [5]) is “D (D represents a maximal response of < 40%)”.

Regarding `Fc1cnc(Cl)nc1N1CCCCC1c1cccc2cnnn12` (stereo not shown) [compound 333], the EC50 at mu opioid receptor (MOR) [1] (setting [3]) and at mu opioid receptor (MOR) [2] (β-arrestin recruitment) was < 700 nM throughout. Besides, at mu opioid receptor (MOR) [1] (setting [4]), the “cAMP Max. Resp.” value was “D (D represents a maximal response of < 40%)”. Further, on mu opioid receptor (MOR) [2] (setting [5]), the “β-arr Max. Resp.” value is listed as “D (D represents a maximal response of < 40%)”.

Consider `COc1ccc(C2CCCCN2c2ccc(Br)cn2)cc1Br` (stereo not shown) [compound 231], for which the EC50 on mu opioid receptor (MOR) [1] (setting [3]) and at mu opioid receptor (MOR) [2] (β-arrestin recruitment) was > 2100 nM throughout. Besides, on mu opioid receptor (MOR) [1] (setting [4]), the “cAMP Max. Resp.” value is recorded as “E (E represents a maximal response of 40-60%)”. In addition, the “β-arr Max. Resp.” value at mu opioid receptor (MOR) [2] (setting [5]) is reported as “E (E represents a maximal response of 40-60%)”.

Take `O=S(=O)(c1ccc(Cl)cc1)N1CCCCC1c1ccc(F)cn1` (racemic) [compound 54]: the EC50 at mu opioid receptor (MOR) [1] (setting [6]) and on mu opioid receptor (MOR) [2] (β-arrestin recruitment) was > 2100 nM in each case. For the same compound, on mu opioid receptor (MOR) [1] (setting [4]), the “cAMP Max. Resp.” value is recorded as “E (E represents a maximal response of 40-60%)”. Further, the “β-arr Max. Resp.” value at mu opioid receptor (MOR) [2] (setting [5]) is “F (F represents a maximal response of > 60%)”.

Take `COc1ncccc1C1CCCCN1c1nc(Cl)ncc1F` (stereo not shown) [compound 380]: the 50% effective concentration (EC50) on mu opioid receptor (MOR) [1] (setting [3]) and on mu opioid receptor (MOR) [2] (β-arrestin recruitment) was < 700 nM throughout. In addition, the “cAMP Max. Resp.” value at mu opioid receptor (MOR) [1] (setting [4]) is on record as “D (D represents a maximal response of < 40%)”. Further, the “β-arr Max. Resp.” value at mu opioid receptor (MOR) [2] (setting [5]) is reported as “D (D represents a maximal response of < 40%)”.

In the case of `Fc1ccnc(C2CCCCN2c2nc(Cl)ncc2F)c1` (stereo not shown) [compound 412], the EC50 at mu opioid receptor (MOR) [1] (setting [3]) and on mu opioid receptor (MOR) [2] (β-arrestin recruitment) was < 700 nM throughout. Further, the “cAMP Max. Resp.” value at mu opioid receptor (MOR) [1] (setting [4]) is “D (D represents a maximal response of < 40%)”. In addition, the “β-arr Max. Resp.” value on mu opioid receptor (MOR) [2] (setting [5]) is on record as “D (D represents a maximal response of < 40%)”.
